# Laboratory results: patent US6355658B1, “Coumarin derivatives, methods of preparation and application as medicines” (Centre National de la Recherche Scientifique, priority 1997, dated 2002)
# Molecular target: T1, bovine α-chymotrypsin (Bos taurus, UniProt P00766)
# T1 construct: bovine α-chymotrypsin
# Assay: Inactivation kinetics of bovine α-chymotrypsin (chromogenic substrate Suc-Ala2-Pro-Phe-pNA)
# Type: biochemical
# Conditions: TABLE 3, no chloromethyl in position 6; 25° C., pH 7.5; N.I. = non-inactivator
# Protocol: (§1) The inactivating or inhibitory properties of the coumarin derivatives were tested with respect to a certain number of enzymes: human leukocyte elastase, bovine α-chymotrypsin, human thrombin and bovine trypsin. The kinetic measurements were taken at 25° C. in the following buffers: 0.1 M Hepes, 0.5 M NaCl, 0.01% Tween 80, pH 8.0 (human leukocyte elastase); 0.025 M NaH2PO4, 0.05 M KCl, pH 7.5 (α-chymotrypsin); 0.01 M Tris, 0.01 M Hepes, 0.1 M NaCl, 0.1% PEG-6000, pH 7.5 (human thrombin); 0.1 M Tris, 0.01 M CaCl2, pH 7.5 (bovine trypsin). The chromogenic substrates used to determine the activity of the enzymes are: MeOSuc-Ala2-Pro-Val-pNA (human leukocyte elastase); Suc-Ala2-Pro-Phe-pNA (α-chymotrypsin); H-D-Phe-Pip-Arg-pNA (human thrombin); N-benzoyl-Arg-pNA (bovine trypsin) (pNA: para-nitroaniline).
# (§2) The interaction of a suicide substrate with a serine protease corresponds to the minimum reaction scheme described in equation 1 in which E represents the enzyme, I represents the inhibitor, E-I represents the acyl-enzyme and E-I′ represents the inactivated enzyme [Silverman R. B., 1988, “Mechanism-based enzyme inactivation: chemistry and enzymology”, volume 1 CRC Press, Boca Raton, Fla.]: [drawing 76]
# (§3) When k4 is small compared to k3, equation 1 can be simplified (equation 2, [Daniels et al., 1983, J. Biol. Chem., 258: 15046-15053]): [drawing 77]
# (§4) Considering the first instants of the reaction, the system reduces to a simplified equation of the form of equation 2.
# (§5) The kinetic constants characterizing the inactivation of the enzymes with the coumarin derivatives were determined using either the conventional sampling method (or batchwise method) or a method placing the inhibitor and the substrate in competition (or continuous method); these methods are described by Pochet et al. [Pochet et al., 1996, J. Med. Chem., 39: 2579-2585].
# (§6) The inactivation of serine proteaaes with the coumarin derivatives is thus characterized by the following constants (see Eq. 2):
# (§7) KI: apparent dissociation constant of an enzyme-inhibitor complex located upstream of ki
# (§8) ki: first-order rate constant for inactivation at infinite inhibitor concentration
# (§9) ki/KI: index of the overall inactivating efficacy of the inhibitor.
row,"Ki/KI or kobs/[I], α-CT",Structure (SMILES)
1,# N.I.,"O=C(Oc1cncc(Cl)c1)c1cc2cc(Br)ccc2oc1=O [Ig1, 5-chloro-3-pyridyl 6-bromo-2-oxo-2H-1-benzopyran-3-carboxylate]"

# Same assay, conditions: TABLE 5, phenyl esters; 25° C., pH 7.5; without 6-chloromethyl: inactivation phase of transient inactivation; N.I. = non-inactivator
row,"Ki/KI or kobs/[I], α-CT",Structure (SMILES)
1,N.I.,"O=C(Oc1c(Cl)cccc1Cl)c1cc2cc(CCl)ccc2oc1=O [Ic″5, 2,6-dichlorophenyl 6-chloromethyl-2-oxo-2H-1-benzopyran-3-carboxylate]"

# Same assay, conditions: TABLE 5, phenyl esters; 25° C., pH 7.5; without 6-chloromethyl: inactivation phase of transient inactivation; N.I. = non-inactivator; read-out: Ki/KI or kobs/[I], α-CT
row,kinact/KI [M⁻¹ s⁻¹],Structure (SMILES)
1,9300,"O=C(Oc1ccccc1[N+](=O)[O-])c1cc2cc(CCl)ccc2oc1=O [Ic″1, 2-nitrophenyl 6-chloromethyl-2-oxo-2H-1-benzopyran-3-carboxylate]"
2,< 500,"O=C(Oc1cccc(C(F)(F)F)c1)c1cc2cc(CCl)ccc2oc1=O [Ic″2, 3-trifluoromethylphenyl 6-chloromethyl-2-oxo-2H-1-benzopyran-3-carboxylate]"
3,1200,"O=C(Oc1cccc(Cl)c1Cl)c1cc2cc(CCl)ccc2oc1=O [Ic″3, 2,3-dichlorophenyl 6-chloromethyl-2-oxo-2H-1-benzopyran-3-carboxylate]"
4,110000,"O=C(Oc1cc(Cl)cc(Cl)c1)c1cc2cc(CCl)ccc2oc1=O [Ic″6, 3,5-dichlorophenyl 6-chloromethyl-2-oxo-2H-1-benzopyran-3-carboxylate]"

# Further lines, the compound ahead of its results:
row,Structure (SMILES),kinact/KI [M⁻¹ s⁻¹]
1,"O=C(Sc1ccccc1)c1cc2cc(CCl)ccc2oc1=O [III1, S-phenyl 6-chloromethyl-2-oxo-2H-1-benzopyran-3-carbothioate]",39000
2,"Cc1ccc2oc(=O)c(C(=O)Oc3cccc(Cl)c3)cc2c1 [Ib1, 3-chlorophenyl 6-methyl-2-oxo-2H-1-benzopyran-3-carboxylate]",9400
3,"COc1cc(Cl)cc(OC(=O)c2cc3cc(CCl)ccc3oc2=O)c1 [Ic″7, 3-chloro-5-methoxyphenyl 6-chloromethyl-2-oxo-2H-1-benzopyran-3-carboxylate]",1200
4,"CC(=O)OCc1ccc2oc(=O)c(C(=O)Oc3cccc(Cl)c3)cc2c1 [Id2, 3-chlorophenyl 6-acetoxymethyl-2-oxo-2H-1-benzopyran-3-carboxylate]",20000

# Molecular target: T2, human leukocyte elastase (Homo sapiens, UniProt P08246)
# T2 sequence (P08246 30-247 limits assumed): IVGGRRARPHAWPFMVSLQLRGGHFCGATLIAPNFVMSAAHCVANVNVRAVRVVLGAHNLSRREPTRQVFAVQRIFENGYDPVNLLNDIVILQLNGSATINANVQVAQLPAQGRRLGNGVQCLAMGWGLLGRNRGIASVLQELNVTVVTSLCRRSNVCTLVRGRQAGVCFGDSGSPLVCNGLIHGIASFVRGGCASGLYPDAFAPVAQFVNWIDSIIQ
# Assay: Inactivation kinetics of human leukocyte elastase (chromogenic substrate MeOSuc-Ala2-Pro-Val-pNA)
# Type: biochemical
# Conditions: TABLE 3, no chloromethyl in position 6; 25° C., pH 8.0; inactivation phase of transient inactivation; read-out: Ki/KI or kobs/[I], LHE
# Protocol: as §1, §2, §3, §4, §5, §6, §7, §8, §9
row,kinact/KI [M⁻¹ s⁻¹],Structure (SMILES)
1,58000,"O=C(Oc1cncc(Cl)c1)c1cc2cc(Br)ccc2oc1=O [Ig1, 5-chloro-3-pyridyl 6-bromo-2-oxo-2H-1-benzopyran-3-carboxylate]"

# Same assay, conditions: TABLE 5, phenyl esters; 25° C., pH 8.0; inactivation phase; N.I. = non-inactivator
row,"Ki/KI or kobs/[I], HLE",Structure (SMILES)
1,N.I.,"O=C(Sc1ccccc1)c1cc2cc(CCl)ccc2oc1=O [III1, S-phenyl 6-chloromethyl-2-oxo-2H-1-benzopyran-3-carbothioate]"

# Same assay, conditions: TABLE 5, phenyl esters; 25° C., pH 8.0; inactivation phase; N.I. = non-inactivator; read-out: Ki/KI or kobs/[I], HLE
row,kinact/KI [M⁻¹ s⁻¹],Structure (SMILES)
1,1250,"O=C(Oc1ccccc1[N+](=O)[O-])c1cc2cc(CCl)ccc2oc1=O [Ic″1, 2-nitrophenyl 6-chloromethyl-2-oxo-2H-1-benzopyran-3-carboxylate]"
2,330,"O=C(Oc1cccc(C(F)(F)F)c1)c1cc2cc(CCl)ccc2oc1=O [Ic″2, 3-trifluoromethylphenyl 6-chloromethyl-2-oxo-2H-1-benzopyran-3-carboxylate]"
3,< 200,"O=C(Oc1cccc(Cl)c1Cl)c1cc2cc(CCl)ccc2oc1=O [Ic″3, 2,3-dichlorophenyl 6-chloromethyl-2-oxo-2H-1-benzopyran-3-carboxylate]"
4,< 200,"O=C(Oc1c(Cl)cccc1Cl)c1cc2cc(CCl)ccc2oc1=O [Ic″5, 2,6-dichlorophenyl 6-chloromethyl-2-oxo-2H-1-benzopyran-3-carboxylate]"
5,4000,"O=C(Oc1cc(Cl)cc(Cl)c1)c1cc2cc(CCl)ccc2oc1=O [Ic″6, 3,5-dichlorophenyl 6-chloromethyl-2-oxo-2H-1-benzopyran-3-carboxylate]"

# Further lines, the compound ahead of its results:
row,Structure (SMILES),kinact/KI [M⁻¹ s⁻¹]
1,"O=C(Oc1cc(Cl)ccc1Cl)c1cc2ccccc2oc1=O [Ia4, 2,5-dichlorophenyl 2-oxo-2H-1-benzopyran-3-carboxylate]",5800
2,"Cc1ccc2oc(=O)c(C(=O)Oc3cccc(Cl)c3)cc2c1 [Ib1, 3-chlorophenyl 6-methyl-2-oxo-2H-1-benzopyran-3-carboxylate]",1100
3,"Cc1ccc2oc(=O)c(C(=O)Oc3cc(Cl)ccc3Cl)cc2c1 [Ib3, 2,5-dichlorophenyl 6-methyl-2-oxo-2H-1-benzopyran-3-carboxylate]",3000
4,"COc1cc(Cl)cc(OC(=O)c2cc3cc(CCl)ccc3oc2=O)c1 [Ic″7, 3-chloro-5-methoxyphenyl 6-chloromethyl-2-oxo-2H-1-benzopyran-3-carboxylate]",350
5,"CC(=O)OCc1ccc2oc(=O)c(C(=O)Oc3cccc(Cl)c3)cc2c1 [Id2, 3-chlorophenyl 6-acetoxymethyl-2-oxo-2H-1-benzopyran-3-carboxylate]",1440

# Molecular target: T3, human thrombin (Homo sapiens, UniProt P00734)
# T3 construct: human thrombin
# Assay: Inactivation kinetics of human thrombin (chromogenic substrate H-D-Phe-Pip-Arg-pNA)
# Type: biochemical
# Conditions: TABLE 5, phenyl esters; 25° C., pH 7.5; inactivation phase; N.I. = non-inactivator
# Protocol: as §1, §2, §3, §4, §5, §6, §7, §8, §9
row,"Ki/KI or kobs/[I], Thrombin",Structure (SMILES)
1,— — — — N.I. N.I.,"O=C(Oc1cccc(Cl)c1Cl)c1cc2cc(CCl)ccc2oc1=O [Ic″3, 2,3-dichlorophenyl 6-chloromethyl-2-oxo-2H-1-benzopyran-3-carboxylate]"
2,— — — — N.I. N.I.,"O=C(Oc1c(Cl)cccc1Cl)c1cc2cc(CCl)ccc2oc1=O [Ic″5, 2,6-dichlorophenyl 6-chloromethyl-2-oxo-2H-1-benzopyran-3-carboxylate]"
3,N.I.,"O=C(Oc1cc(Cl)cc(Cl)c1)c1cc2cc(CCl)ccc2oc1=O [Ic″6, 3,5-dichlorophenyl 6-chloromethyl-2-oxo-2H-1-benzopyran-3-carboxylate]"

# Second part, the compound before the results:
row,Structure (SMILES),"Ki/KI or kobs/[I], Thrombin"
1,"O=C(Oc1cc(Cl)ccc1Cl)c1cc2ccccc2oc1=O [Ia4, 2,5-dichlorophenyl 2-oxo-2H-1-benzopyran-3-carboxylate]",N.I.
2,"O=C(Oc1cc(F)ccc1F)c1cc2ccccc2oc1=O [Ia5, 2,5-difluorophenyl 2-oxo-2H-1-benzopyran-3-carboxylate]",N.I.

# Same assay, conditions: TABLE 5, phenyl esters; 25° C., pH 7.5; inactivation phase; N.I. = non-inactivator; read-out: Ki/KI or kobs/[I], Thrombin
row,Structure (SMILES),kinact/KI [M⁻¹ s⁻¹]
1,"CC(=O)OCc1ccc2oc(=O)c(C(=O)Oc3cccc(Cl)c3)cc2c1 [Id2, 3-chlorophenyl 6-acetoxymethyl-2-oxo-2H-1-benzopyran-3-carboxylate]",580
2,"CC(=O)OCc1ccc2oc(=O)c(C(=O)Oc3cc(Cl)ccc3Cl)cc2c1 [Id11, 2,5-dichlorophenyl 6-acetoxymethyl-2-oxo-2H-1-benzopyran-3-carboxylate]",500
3,"CC(=O)OCc1ccc2oc(=O)c(C(=O)Oc3cc(F)ccc3F)cc2c1 [Id12, 2,5-difluorophenyl 6-acetoxymethyl-2-oxo-2H-1-benzopyran-3-carboxylate]",150

# Tested on: not given
# Assay: not given
# Conditions: not given
row,melting point [°C],Structure (SMILES)
1,163 to 164,"O=C(Oc1ccccc1[N+](=O)[O-])c1cc2cc(CCl)ccc2oc1=O [Ic″1, 2-nitrophenyl 6-chloromethyl-2-oxo-2H-1-benzopyran-3-carboxylate]"
2,162 to 163,"O=C(Oc1cccc(C(F)(F)F)c1)c1cc2cc(CCl)ccc2oc1=O [Ic″2, 3-trifluoromethylphenyl 6-chloromethyl-2-oxo-2H-1-benzopyran-3-carboxylate]"

# Continued, compound first:
row,Structure (SMILES),melting point [°C]
1,"O=C(Oc1cc(Cl)ccc1Cl)c1cc2ccccc2oc1=O [Ia4, 2,5-dichlorophenyl 2-oxo-2H-1-benzopyran-3-carboxylate]",189 to 192
2,"O=C(Oc1cc(F)ccc1F)c1cc2ccccc2oc1=O [Ia5, 2,5-difluorophenyl 2-oxo-2H-1-benzopyran-3-carboxylate]",134 to 137
3,"Cc1ccc2oc(=O)c(C(=O)Oc3cccc(Cl)c3)cc2c1 [Ib1, 3-chlorophenyl 6-methyl-2-oxo-2H-1-benzopyran-3-carboxylate]",175 to 176
4,"Cc1ccc2oc(=O)c(C(=O)Oc3cc(Cl)ccc3Cl)cc2c1 [Ib3, 2,5-dichlorophenyl 6-methyl-2-oxo-2H-1-benzopyran-3-carboxylate]",175 to 179
5,"CC(=O)OCc1ccc2oc(=O)c(C(=O)Oc3cc(Cl)ccc3Cl)cc2c1 [Id11, 2,5-dichlorophenyl 6-acetoxymethyl-2-oxo-2H-1-benzopyran-3-carboxylate]",168 to 171
6,"CC(=O)OCc1ccc2oc(=O)c(C(=O)Oc3cc(F)ccc3F)cc2c1 [Id12, 2,5-difluorophenyl 6-acetoxymethyl-2-oxo-2H-1-benzopyran-3-carboxylate]",137 to 139
